Results as given in US20230279016A1, “Tetrahydropyrazolopyrimidines and Related Analogs for Inhibiting YAP/TAZ-TEAD” (THE KATHOLIEKE UNIVERSITEIT LEUVEN, priority 2021, published 2023).
pEC50: −log10 of the molar value.

Assays:
Type in all cases: cell-based
[1] = test system: NCI-H226 mesothelioma cell line; assay: Mesothelioma cell line proliferation assay, NCI-H226; details: NCI-H226, 6 days with compound, cell viability by ATPlite
Method: (§1) Mesothelioma cell lines, NCI-H226 and NCI-H2052 (all sourced from the ATCC cell culture collection) are plated in 96-well plates (Corning® 96 Well White Polystyrene Microplate clear flat bottom, white polystyrene (TC-Treated)), at 1500 cells/well in full medium (RPMI 1640 ATCC modification with L-glutamine, HEPES, Phenol Red, Sodium Pyruvate, High glucose, Low sodium bicarbonate and 10% fetal bovine serum). Cells are incubated overnight at 37° C. in an incubator with 5% CO2. Then compounds, dissolved in DMSO, are added in dose-response. Cells are incubated with compound dilutions for another 6 days at 37° C. in an incubator with 5% CO2. Cell viability is quantitated using the ATPlite kit (Perkin-Elmer) and the luminescence is read-out using an Envision instrument (Perkin-Elmer). The amount of relative light units produced using the ATPlite kit is used to calculated percent of inhibition.
(§2) The activities of example compounds tested are depicted in the table below. The activity ranges A, B and C refer to EC50 values in the mesothelioma cell line proliferation assay as described as follows: “A”: EC50 <1 μM; “B” : 1 μM EC50 ≤10 μM and “C” : EC50 >10 μM. NT: not tested.

[2] = test system: NCI-H2052 mesothelioma cell line; assay: Mesothelioma cell line proliferation assay, NCI-H2052; details: NCI-H2052, 6 days with compound, cell viability by ATPlite
Method: as §1, §2

[3] = test system: YAP/TAZ-TEAD transcription; assay: Reporter gene assay for measuring the inhibition of YAP/TAZ-TEAD transcription (TEAD-responsive element luciferase reporter in Hek293T cells); details: Hek293T cells transiently transfected with TEAD-responsive element luciferase reporter, 24 hours incubation
How it was run: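 Hek293T cells transiently transfected with TEAD-responsive luciferase reporter, exposed to compound for 24 h at 37° C/5% CO2, then read by luminescence. Percent inhibition normalized to vehicle (0%) and positive control inhibitor (100%); EC50 reported as activity ranges.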

| Compound | pEC50 ([1]; Homo sapiens, NCI-H226, 144 h) | pEC50 [2] | pEC50 ([3]; Homo sapiens, HEK-293T, 24 h) | pEC50 ([2]; Homo sapiens, NCI-H2052, 144 h) | pEC50 [1] | pEC50 [3] |
| --- | --- | --- | --- | --- | --- | --- |
| C=CC(=O)NCC1CN(c2ccc(OC(F)(F)F)cc2)c2ccnn2C1 (stereo not shown) [Cpd. No. 011, N-((4-(4-(trifluoromethoxy)phenyl)-4,5,6,7-tetrahydropyrazolo[1,5-a]pyrimidin-6-yl)methyl)acrylamide] | > 6.00 | > 6.00 | > 6.00 |  |  |  |
| FC(F)(F)c1ccc(N2CC(C3CC(Br)=NO3)Cn3nccc32)cc1 (single isomer, unassigned) [Cpd. No. 086-Dia1, 3-bromo-5-(4-(4-(trifluoromethyl)phenyl)-4,5,6,7-tetrahydropyrazolo[1,5-a]pyrimidin-6-yl)-4,5-dihydroisoxazole] | > 6.00 |  | > 6.00 | > 6.00 |  |  |
| C=CC(=O)NCC1CN(Cc2cccc(C(F)(F)F)c2)c2ccnn2C1 (stereo not shown) [Cpd. No. 052, N-((4-(3-(trifluoro-methyl)benzyl)-4,5,6,7-tetrahydropyrazolo[1,5-a]pyrimidin-6-yl)methyl)acrylamide] | > 6.00 |  | > 6.00 | > 6.00 |  |  |
| C=CC(=O)NCC1CN(c2ccc(OC(F)(F)F)c(F)c2)c2ccnn2C1 (single isomer, unassigned) [Cpd. No. 018-En1, (R)- or (S)-N-((4-(3-fluoro-4-(trifluoromethoxy)phenyl)-4,5,6,7-tetrahydropyrazolo[1,5-a]pyrimidin-6-yl)methyl)acrylamide] | > 6.00 |  |  | > 6.00 |  |  |
| C=CC(=O)NCC1Cc2c(cnn2C)N(c2ccc(OC(F)(F)F)cc2)C1 (stereo not shown) [Cpd. No. 070, N-((1-methyl-4-(4-(trifluoromethoxy)phenyl)-4,5,6,7-tetrahydro-1H-pyrazolo[4,3-b]pyridin-6-yl)methyl)acrylamide] | > 6.00 |  | > 6.00 | > 6.00 |  |  |
| C=CC(=O)NC1CN(c2ccc(C(F)(F)F)cc2F)c2ccnn2C1 (single isomer, unassigned) [Cpd. No. 065-En1, (R)- or (S)-N-(4-(2-fluoro-4-(trifluoromethyl)phenyl)-4,5,6,7-tetrahydropyrazolo[1,5-a]pyrimidin-6-yl)acrylamide] | > 6.00 |  | > 6.00 | > 6.00 |  |  |
| C=CC(=O)NCC1CN(c2ccc(OC(F)(F)F)cc2)c2cc(C(F)(F)F)nn2C1 (single isomer, unassigned) [Cpd. No. 035-En2, (R)- or (S)-N-((4-(4-(trifluoromethoxy)phenyl)-2-(trifluoromethyl)-4,5,6,7-tetrahydropyrazolo[1,5-a]pyrimidin-6-yl)methyl)acrylamide] | > 6.00 |  |  | 5.00 to 6.00 |  |  |
| C=CC(=O)NCC1Cc2nn(C)cc2N(c2ccc(OC(F)(F)F)cc2)C1 (stereo not shown) [Cpd. No. 071, N-((2-methyl-4-(4-(trifluoromethoxy)phenyl)-4,5,6,7-tetrahydro-2H-pyrazolo[4,3-b]pyridin-6-yl)methyl)acrylamide] | > 6.00 |  | > 6.00 | > 6.00 |  |  |
| C=C(F)C(=O)NCC1CN(c2ccc(C(F)(F)F)cc2)c2ccnn2C1 (stereo not shown) [Cpd. No. 039, 2-fluoro-N-((4-(4-(trifluoromethyl)phenyl)-4,5,6,7-tetrahydropyrazolo[1,5-a]pyrimidin-6-yl)methyl)acrylamide] | > 6.00 |  | > 6.00 | > 6.00 |  |  |
| CS(=O)(=O)NCC1CN(c2ccc(C(F)(F)F)cc2)c2ccnn2C1 (stereo not shown) [Cpd. No. 027, N-((4-(4-(trifluoromethyl)phenyl)-4,5,6,7-tetrahydropyrazolo[1,5-a]pyrimidin-6-yl)methyl)methanesulfonamide] | < 5.00 |  | < 4.70 | < 5.00 |  |  |
| C=CC(=O)NCC1CN(c2ccc(C(C)(C)C)cc2)c2ccnn2C1 (single isomer, unassigned) [Cpd. No. 014-En1, (R)- or (S)-N-((4-(4-(tert-butyl)phenyl)-4,5,6,7-tetrahydropyrazolo[1,5-a]pyrimidin-6-yl)methyl)acrylamide] | > 6.00 |  | > 6.00 | > 6.00 |  |  |
| C=CC(=O)NCC1CN(c2ccc(C(F)(F)F)cc2F)c2ccnn2C1 (single isomer, unassigned) [Cpd. No. 016-En2, (R)- or (S)-N-((4-(2-fluoro-4-(trifluoromethyl)phenyl)-4,5,6,7-tetrahydropyrazolo[1,5-a]pyrimidin-6-yl)methyl)acrylamide] |  | < 5.00 |  |  | > 6.00 | > 6.00 |
| O=C1NCCC12CN(c1ccc(C(F)(F)F)cc1)c1ccnn1C2 (stereo not shown) [Cpd. No. 087, 4-(4-(trifluoromethyl)phenyl)-4,5-dihydro-7H-spiro[pyrazolo[1,5-a]pyrimidine-6,3′-pyrrolidin]-2′-one] | < 5.00 |  | > 6.00 | < 5.00 |  |  |
| C=CC(=O)N1CCC2(C1)CN(c1ccc(C(F)(F)F)cc1)c1ccnn1C2 (stereo not shown) [Cpd. No. 088, 1-(4-(4-(trifluoromethyl)phenyl)-4,5-dihydro-7H-spiro[pyrazolo[1,5-a]pyrimidine-6,3′-pyrrolidin]-1′-yl)prop-2-en-1-one] | > 6.00 |  | > 6.00 | > 6.00 |  |  |
| C=CC(=O)NC1CN(c2ccc(C(F)(F)F)c(F)c2)c2ccnn2C1 (single isomer, unassigned) [Cpd. No. 064-En1, (R)- or (S)-N-(4-(3-fluoro-4-(trifluoromethyl)phenyl)-4,5,6,7-tetrahydropyrazolo[1,5-a]pyrimidin-6-yl)acrylamide] | > 6.00 |  |  | > 6.00 |  |  |
| C=CC(=O)NCC1CN(c2cccc(C(F)(F)F)c2)c2ccnn2C1 (single isomer, unassigned) [Cpd. No. 003-En1, (R)- or (S)-N-((4-(3-(trifluoromethyl)phenyl)-4,5,6,7-tetrahydropyrazolo[1,5-a]pyrimidin-6-yl)methyl)acrylamide] | 5.00 to 6.00 |  |  | < 5.00 |  |  |
| C=CC(=O)NCC1CN(CC2CCCCC2)c2ccnn2C1 (single isomer, unassigned) [Cpd. No. 055-En2, (R)- or (S)-N-((4-(cyclohexylmethyl)-4,5,6,7-tetrahydropyrazolo[1,5-a]pyrimidin-6-yl)-methyl)acrylamide] | > 6.00 |  |  | < 5.00 |  |  |
| C=CC(=O)NCC1CN(c2ccc(OC(F)(F)F)c(F)c2)c2ccnn2C1 (single isomer, unassigned) [Cpd. No. 018-En2, (R)- or (S)-N-((4-(3-fluoro-4-(trifluoromethoxy)phenyl)-4,5,6,7-tetrahydropyrazolo[1,5-a]pyrimidin-6-yl)methyl)acrylamide] |  | > 6.00 |  |  | > 6.00 |  |
| C=CC(=O)NCC1CN(c2ccc(Br)cc2)c2ccnn2C1 (single isomer, unassigned) [Cpd. No. 021-En2, (R)- or (S)-N-((4-(4-bromophenyl)-4,5,6,7-tetrahydropyrazolo[1,5-a]pyrimidin-6-yl)methyl)acrylamide] | > 6.00 |  |  | > 6.00 |  |  |
| CS(=O)(=O)NCC1CN(Cc2ccc(C(F)(F)F)cc2)c2ccnn2C1 (stereo not shown) [Cpd. No. 051, N-((4-(4-(trifluoro-methyl)benzyl)-4,5,6,7-tetrahydropyrazolo[1,5-a]pyrimidin-6-yl)-methyl)methanesulfonamide] |  |  | < 4.70 |  |  |  |
| C=CC(=O)NC1CN(c2ccc(C(F)(F)F)cc2F)c2ccnn2C1 (single isomer, unassigned) [Cpd. No. 065-En2, (R)- or (S)-N-(4-(2-fluoro-4-(trifluoromethyl)phenyl)-4,5,6,7-tetrahydropyrazolo[1,5-a]pyrimidin-6-yl)acrylamide] |  |  |  |  |  | > 6.00 |
